Structures are written as SMILES.

In test [1] the test system is Staphylococcus Aureus (ATCC29213). Put plainly: Dilution test in vitro on medium for antibacterial agents, strain S. Aureus. In kind it is cell-based. The settings on record: CAMH broth, 5×10^5 CFU/ml, 35° C. for 20 hr, read with the naked eye. From the text: (§1) Dilution Test in vitro on Medium for Antibacterial Agents
(§2) Such activity has been determined by using the dilution method in vitro on culture medium as described by Sahm et al. (S. D. Sahm, J. A. Washington “Antibacterial susceptibility tests: dilution methods” in: Manual of Clinical Microbiology, ed. A. Balows, W. J. Hausler, Jr, K. L. Hermann, H. D. Isenberg, H. J. Shadomy, 1991, American Society for Microbiology). According to this method a concentration in aqueous solution of substance having antimicrobial activity able to inhibit the growth of some bacterial strains is determined. For the precursor the maximum concentration of the substance at which the microbial growth is still observed under the adopted experimental conditions is selected and the same concentration is used for the corresponding nitrate salt. The solvents and the necessary dilutions for preparing the strain substances of the antibiotics to be tested are prepared according to procedures standard and well known to the person skilled in the field (National Committee for Clinical Laboratory Standards, 1990 “Methods for dilution antimicrobial susceptibility tests for bacteria that grow aerobically. Approved standard M7-A2. National Committee for Clinical Laboratory Standards, Villanova, Pa.). Also the preparation of the culture medium is carried out according to standard procedures and the CAMH broth is used (Cation-adjusted Mueller-Hinton broth) (National Committee for Clinical Laboratory Standards, 1990, Methods for dilution antimicrobial susceptibility tests for bacteria that grow aerobically. Approved standard M7-A2. National Committee for Clinical Laboratory Standards, Villanova, Pa.).
(§3) The inoculation procedure is carried out according to standard procedures and the final concentration of the inocolum is of 5×10^5 CFU (colony forming unit)/ml. The used microorganisms have been Escherichia Coli (ATCC25922) and Staphylococcus Aureus (ATCC29213).
(§4) The test tubes are incubated at 35° C. for 20 hr before reading. The microbial growth, or the absence of the same, is determined in a qualitative way, with the naked eye and it indicates the microbial resistance or, respectively, the sensitivity to the antimicrobial agent.

Test [2] relates to Escherichia Coli (ATCC25922). Put plainly: Dilution test in vitro on medium for antibacterial agents, strain E. Coli. In kind it is cell-based. The note with it: CAMH broth, 5×10^5 CFU/ml, 35° C. for 20 hr, read with the naked eye.
From the text: as §1
The capability to antagonize the arising of the microbial resistance of the nitrate salts of the antimicrobial compounds in comparison with that of the respective precursors has been evaluated.
as §2, §3, §4

Consider `O=C(O)c1cn(C2CC2)c2cc(N3CCNCC3)c(F)cc2c1=O` [Ciprofloxacin], for which, in test [1] (concentration 0.05 μg/ml), the “RESPONSE (microbial growth)” value is on record as “Growth”. With `CC1(C)S[C@@H]2[C@H](NC(=O)[C@H](N)c3ccccc3)C(=O)N2[C@H]1C(=O)O.O=[N+]([O-])O` [Ampicillin.HNO3, Ampicillin nitrate salt], in test [2] (concentration 1.0 μg/ml), the “RESPONSE (microbial growth)” value is “No growth”. As for `Cc1cc(NS(=O)(=O)c2ccc(N)cc2)no1.O=[N+]([O-])O` [Sulfamethoxazole.HNO3, Sulfamethoxazole nitrate salt], in test [1] (concentration 20 μg/ml), the “RESPONSE (microbial growth)” value is “No growth”. Turning to `CCC[C@@H]1C[C@@H](C(=O)N[C@@H]([C@H]2O[C@H](SC)[C@H](O)[C@@H](O)[C@H]2O)[C@H](C)Cl)N(C)C1` [Clindamycin], the “RESPONSE (microbial growth)” value in test [1] (concentration 0.03 μg/ml) is reported as “Growth”. For `O=C(O)c1cn(C2CC2)c2cc(N3CCNCC3)c(F)cc2c1=O.O=[N+]([O-])O` [Ciprofloxacin.HNO3, Ciprofloxacin nitrate salt], the “RESPONSE (microbial growth)” value in test [1] (concentration 1.0 μg/ml) was “No growth”.

On to `CCCC1CC(C(=O)NC(C(C)Cl)C2OC(SC)C(O)C(O)C2O)N(C)C1.O=[N+]([O-])O` (centres unmarked) [Clindamycin.HNO3, Clindamycin nitrate salt], for which the “RESPONSE (microbial growth)” value in test [1] (concentration 0.03 μg/ml) is listed as “No growth”. `COc1cc(Cc2cnc(N)nc2N)cc(OC)c1OC.O=[N+]([O-])O` [Trimethoprim.HNO3, Trimethoprim nitrate salt]: the “RESPONSE (microbial growth)” value in test [1] (concentration 0.5 μg/ml) was “No growth”.

Turning to `CC[C@H]1OC(=O)[C@H](C)[C@@H](O[C@H]2C[C@@](C)(OC)[C@@H](O)[C@H](C)O2)[C@H](C)[C@@H](O[C@@H]2O[C@H](C)C[C@H](N(C)C)[C@H]2O)[C@](C)(O)C[C@@H](C)C(=O)[C@H](C)[C@@H](O)[C@]1(C)O.O=[N+]([O-])O` [Erythromycin.HNO3, Erythromycin nitrate salt], the “RESPONSE (microbial growth)” value in test [1] (concentration 0.06 μg/ml) is listed as “No growth”.

As to `Cc1cc(NS(=O)(=O)c2ccc(N)cc2)no1` [Sulfamethoxazole], the “RESPONSE (microbial growth)” value in test [1] (concentration 20 μg/ml) was “Growth”. Regarding `Cc1nnc(SCC2=C(C(=O)O)N3C(=O)[C@@H](NC(=O)Cn4cnnn4)[C@H]3SC2)s1.O=[N+]([O-])O` [Cefazolin.HNO3, Cefazolin nitrate salt], the “RESPONSE (microbial growth)” value in test [2] (concentration 0.5 μg/ml) is listed as “No growth”.

With `Cc1nnc(SCC2=C(C(=O)O)N3C(=O)[C@@H](NC(=O)Cn4cnnn4)[C@H]3SC2)s1` [Cefazolin], the “RESPONSE (microbial growth)” value in test [2] (concentration 0.5 μg/ml) is recorded as “Growth”.

Take `COc1cc(Cc2cnc(N)nc2N)cc(OC)c1OC` [Trimethoprim]: in test [1] (concentration 0.5 μg/ml), the “RESPONSE (microbial growth)” value is “Growth”. For `CC1(C)S[C@@H]2[C@H](NC(=O)[C@H](N)c3ccccc3)C(=O)N2[C@H]1C(=O)O` [Ampicillin], the “RESPONSE (microbial growth)” value in test [2] (concentration 1.0 μg/ml) is “Growth”.

`CC[C@H]1OC(=O)[C@H](C)[C@@H](O[C@H]2C[C@@](C)(OC)[C@@H](O)[C@H](C)O2)[C@H](C)[C@@H](O[C@@H]2O[C@H](C)C[C@H](N(C)C)[C@H]2O)[C@](C)(O)C[C@@H](C)C(=O)[C@H](C)[C@@H](O)[C@]1(C)O` [Erythromycin]: in test [1] (concentration 0.06 μg/ml), the “RESPONSE (microbial growth)” value is given as “Growth”.

For the origin of these results see patent publication US6794372B2, “Nitrate salts of antimicrobial agents” (Nicox S.A., priority 2000, dated 2004).
